Assay results from ChEMBL document CHEMBL4483862, “Open-source discovery of chemical leads for next-generation chemoprotective antimalarials” (2018).

Tested on: Plasmodium berghei
Experiment: Luciferase/luciferin-expressing antifolate-resistant parasites were used to infect a culture of HepG2 cells that were pre-incubated with compounds. Infected hepatocytes emit light due to the luciferase reaction. Assay results are presented as the percent inhibition of light emission compared to control. […]
Assay type: functional
Settings: sporozoite; for IC90: read-out: LUCIFERASE INFECTION ASSAY - IC90
[1] = read-out: LUCIFERASE INFECTION ASSAY - IC50

SMILES | IC90 | also measured
COc1ccc(-c2cnc3cnc(-c4cccs4)cn23)cn1 | 4.6 µM | IC50 (PBLUC_HILL_SLOPE 13.2, PBLUC_R_SQUARED 0.556, read-out: LUCIFERASE INFECTION ASSAY - IC50): 3.89 µM
CCN(CC(=O)Nc1ccccc1-c1ccccc1)Cc1nc(O)c2ccccc2n1 | 7.89 µM | IC50 (FFLUC_HILL_SLOPE 18, FFLUC_R_SQUARED 0.273, HEPG2TOX_HILL_SLOPE 1.8, HEPG2TOX_R_SQUARED 0.962, PBLUC_HILL_SLOPE 1.44, PBLUC_R_SQUARED 0.751, read-out: LUCIFERASE INFECTION ASSAY - IC50): 1.72 µM
O=C(COc1ccccc1CSc1ccc(Cl)cc1)N/N=C/c1ccccc1Cl | > 7.41 µM | IC50 [1]: > 7.41 µM
O=C1C=C(c2ccccc2)C(=O)N1Nc1ccccc1 | > 12.5 µM | IC50 [1]: > 12.5 µM
Cc1cccc(Oc2ccc(NC(=O)c3cccc(S(=O)(=O)N(C)C4CCCCC4)c3)cc2)c1 | 9.44 µM | IC50 (FFLUC_HILL_SLOPE 23.3, FFLUC_R_SQUARED 0.81, HEPG2TOX_HILL_SLOPE 1.26, HEPG2TOX_R_SQUARED 0.904, PBLUC_HILL_SLOPE 3.5, PBLUC_R_SQUARED 0.0916, read-out: LUCIFERASE INFECTION ASSAY - IC50): 5.04 µM
Cc1onc(-c2c(Cl)cccc2Cl)c1C(=O)N1CCCc2ccccc21 | > 8.52 µM | IC50 (HEPG2TOX_HILL_SLOPE 0.734, HEPG2TOX_R_SQUARED 0.611, PBLUC_HILL_SLOPE 1.71, PBLUC_R_SQUARED 0.613, read-out: LUCIFERASE INFECTION ASSAY - IC50): 3.64 µM
O=C(COC(=O)C1Cc2ccccc2CN1S(=O)(=O)/C=C/c1ccccc1)c1ccccc1 (stereo unspecified) | > 10 µM | IC50 (PBLUC_HILL_SLOPE 0.237, PBLUC_R_SQUARED 0.0458, read-out: LUCIFERASE INFECTION ASSAY - IC50): > 10 µM
Cc1cnc(C(=O)NNC(=O)CC23CC4CC(CC(C4)C2)C3)cn1 | 9.85 µM | IC50 (HEPG2TOX_HILL_SLOPE 1.28, HEPG2TOX_R_SQUARED 0.86, PBLUC_HILL_SLOPE 19.8, PBLUC_R_SQUARED 0.188, read-out: LUCIFERASE INFECTION ASSAY - IC50): 8.81 µM
O=C(CCN1CCN(c2ccc([N+](=O)[O-])cc2)CC1)N1CCN(c2ccccn2)CC1 | 4.57 µM | IC50 (HEPG2TOX_HILL_SLOPE 9.17, HEPG2TOX_R_SQUARED 0.128, PBLUC_HILL_SLOPE 14.9, PBLUC_R_SQUARED 0.446, read-out: LUCIFERASE INFECTION ASSAY - IC50): 3.94 µM
O=C(c1ccc(OCc2cccnc2)cc1)N1CCc2ccccc21 | > 10 µM | IC50 (HEPG2TOX_HILL_SLOPE 3.32, HEPG2TOX_R_SQUARED 0.856, read-out: LUCIFERASE INFECTION ASSAY - IC50): > 10 µM
Cc1csc2sc(COC(=O)Nc3ccccc3)c(C)c12 | > 10.4 µM | IC50 (HEPG2TOX_HILL_SLOPE 0.302, HEPG2TOX_R_SQUARED 0.714, PBLUC_HILL_SLOPE 1.42, PBLUC_R_SQUARED 0.482, read-out: LUCIFERASE INFECTION ASSAY - IC50): 8.97 µM
O=C(NN=CC1C(=O)N(c2ccccc2C(F)(F)F)C(=O)c2ccccc21)c1ccc(F)cc1 (stereo unspecified) | > 10 µM | IC50 (HEPG2TOX_HILL_SLOPE 4.25, HEPG2TOX_R_SQUARED 0.761, PBLUC_HILL_SLOPE 4.13, PBLUC_R_SQUARED 0.557, read-out: LUCIFERASE INFECTION ASSAY - IC50): 5.89 µM
O=C(Cn1cnc2sccc2c1=O)Nc1nc(-c2ccccn2)cs1 | > 10 µM | IC50 (HEPG2TOX_HILL_SLOPE 0.285, HEPG2TOX_R_SQUARED 0.277, PBLUC_HILL_SLOPE 15.4, PBLUC_R_SQUARED 0.28, read-out: LUCIFERASE INFECTION ASSAY - IC50): 9.25 µM
CCc1ccc(S(=O)(=O)Nc2cc(Cl)c(O)c3ccccc23)cc1 | > 10 µM | IC50 (PBLUC_HILL_SLOPE 0.706, PBLUC_R_SQUARED 0.416, read-out: LUCIFERASE INFECTION ASSAY - IC50): 1.42 µM
CCC(=O)c1ccc(OCCCCn2cnc3ccccc32)cc1 | > 10 µM | IC50 [1]: > 10 µM
Cn1c(-c2ccco2)nc2cnc(Nc3cccc(C(F)(F)F)c3)cc21 | > 10 µM | IC50 (FFLUC_HILL_SLOPE 19, FFLUC_R_SQUARED 0.549, HEPG2TOX_HILL_SLOPE 17, HEPG2TOX_R_SQUARED 0.382, PBLUC_HILL_SLOPE 1.81, PBLUC_R_SQUARED 0.343, read-out: LUCIFERASE INFECTION ASSAY - IC50): 8.8 µM
CC(C)NC(=O)c1c(NC(=O)c2ccc(C#N)cc2)nc2ccccn12 | > 9.5 µM | IC50 (HEPG2TOX_HILL_SLOPE 1.96, HEPG2TOX_R_SQUARED 0.946, PBLUC_HILL_SLOPE 9.83, PBLUC_R_SQUARED 0.197, read-out: LUCIFERASE INFECTION ASSAY - IC50): 8.07 µM
O=C(NC1CC1)c1cccc(NC(C(=O)Nc2cc(C(F)(F)F)ccc2Cl)c2ccccc2)c1 (stereo unspecified) | > 10 µM | IC50 [1]: 9.94 µM
Cc1c(NC(=O)c2c(F)cccc2F)cc2c(c1[N+](=O)[O-])C(C)(C)CC2(C)C | > 8.5 µM | IC50 (PBLUC_HILL_SLOPE 39, PBLUC_R_SQUARED 0.724, read-out: LUCIFERASE INFECTION ASSAY - IC50): > 8.5 µM

SMILES | IC90 | also measured
Nc1ccccc1SC(CC(=O)c1ccccc1)c1ccc([N+](=O)[O-])cc1 (stereo unspecified) | > 8.72 µM | IC50 (PBLUC_HILL_SLOPE 4.35, PBLUC_R_SQUARED 0.338, read-out: LUCIFERASE INFECTION ASSAY - IC50): 8.12 µM
CCOC(=O)c1c(S(N)(=O)=O)c(C)n(-c2ccccc2)c1C | > 10.2 µM | IC50 [1]: > 10.2 µM
N#C/C(=N\Nc1ccc(OC(F)(F)F)cc1)C(=O)C1CC1 | > 11.1 µM | IC50 (HEPG2TOX_HILL_SLOPE 1.44, HEPG2TOX_R_SQUARED 0.96, PBLUC_HILL_SLOPE 2.87, PBLUC_R_SQUARED 0.372, read-out: LUCIFERASE INFECTION ASSAY - IC50): 7.46 µM
Cc1ccc2c(C)cc(Sc3nc4ccccc4s3)nc2c1 | > 10 µM | IC50 [1]: > 10 µM
CC(C)(C)C(=O)ONC(N)=CS(=O)(=O)c1ccc(Cl)cc1 | > 9.92 µM | IC50 [1]: > 9.92 µM
COc1ccc(-c2cc(-c3nnc4n3CCCCC4)c3c(C)nn(-c4ccccc4)c3n2)cc1 | > 10 µM | IC50 (PBLUC_HILL_SLOPE 3.73, PBLUC_R_SQUARED 0.529, read-out: LUCIFERASE INFECTION ASSAY - IC50): 5.69 µM
CC(C)Oc1ccc(-c2nc3c4c5c(sc4ncn3n2)CN(C)CC5)cc1 | > 8.7 µM | IC50 (HEPG2TOX_HILL_SLOPE 0.881, HEPG2TOX_R_SQUARED 0.629, PBLUC_HILL_SLOPE 9.03, PBLUC_R_SQUARED 0.277, read-out: LUCIFERASE INFECTION ASSAY - IC50): 8.35 µM
Cc1c(C)n(CCCO)c2ncn3nc(-c4ccc(Cl)cc4)nc3c12 | > 9.27 µM | IC50 [1]: > 9.27 µM
O=S(=O)(c1cccs1)n1ccc(-c2ccc3c(c2)CCO3)n1 | > 9.93 µM | IC50 [1]: > 9.93 µM
CC(C)C(=O)Nc1c(-c2ccc(Cl)c(Cl)c2)c(=O)c2ccccc2n1C | 3.11 µM | IC50 (PBLUC_HILL_SLOPE 11.7, PBLUC_R_SQUARED 0.375, read-out: LUCIFERASE INFECTION ASSAY - IC50): 2.58 µM
COc1ccc2c(-c3sc(Nc4ccc(C(C)C)cc4)c(-c4nc5ccccc5s4)c3N)cc(=O)oc2c1 | 2.94 µM | IC50 (HEPG2TOX_HILL_SLOPE 1.27, HEPG2TOX_R_SQUARED 0.95, PBLUC_HILL_SLOPE 4.32, PBLUC_R_SQUARED 0.419, read-out: LUCIFERASE INFECTION ASSAY - IC50): 1.76 µM
OCCNCc1cc(Cl)ccc1OCc1ccc(Cl)cc1Cl | > 8.31 µM | IC50 (HEPG2TOX_HILL_SLOPE 0.0281, HEPG2TOX_R_SQUARED 0.0269, read-out: LUCIFERASE INFECTION ASSAY - IC50): > 8.31 µM
CNc1nc2cnc(-c3cccc(Oc4ccccc4)c3)cc2n1-c1cccc(F)c1 | > 10 µM | IC50 (FFLUC_HILL_SLOPE 5.28, FFLUC_R_SQUARED 0.776, PBLUC_HILL_SLOPE 4.98, PBLUC_R_SQUARED 0.188, read-out: LUCIFERASE INFECTION ASSAY - IC50): 8.03 µM
Cc1nn(-c2ccccc2)c(Cl)c1/C=N/OCC(=O)Nc1cccc(C(F)(F)F)c1 | 9.91 µM | IC50 (PBLUC_HILL_SLOPE 4.91, 2.77, PBLUC_R_SQUARED 0.190, 0.335, read-out: LUCIFERASE INFECTION ASSAY - IC50): 5.6 µM
Cc1cc2c(cc1C)CSC(c1ccccc1OC(=O)c1cccc3ccccc13)SC2 | > 10 µM | IC50 (FFLUC_HILL_SLOPE 3.12, FFLUC_R_SQUARED 0.597, read-out: LUCIFERASE INFECTION ASSAY - IC50): > 10 µM
O=c1c2ccccc2[nH]c2ccc(Oc3ncnc4ccsc34)cc12 | 0.558 µM | IC50 (FFLUC_HILL_SLOPE 10.4, FFLUC_R_SQUARED 0.538, PBLUC_HILL_SLOPE 5.72, PBLUC_R_SQUARED 0.733, read-out: LUCIFERASE INFECTION ASSAY - IC50): 0.38 µM
O=[N+]([O-])c1ccc(Sc2ccc(F)cc2)c2nonc12 | > 11.3 µM | IC50 (FFLUC_HILL_SLOPE 1.53, FFLUC_R_SQUARED 0.17, HEPG2TOX_HILL_SLOPE 11.1, HEPG2TOX_R_SQUARED 0.647, PBLUC_HILL_SLOPE 22.5, PBLUC_R_SQUARED 0.184, read-out: LUCIFERASE INFECTION ASSAY - IC50): 10.5 µM
Cc1ccc(N2C(=O)/C(=C/c3ccc(C(C)C)cc3)N=C2SCC(=O)C23CC4CC(CC(C4)C2)C3)cc1 | > 10 µM | IC50 (FFLUC_HILL_SLOPE 28, FFLUC_R_SQUARED 0.571, PBLUC_HILL_SLOPE 16, PBLUC_R_SQUARED 0.0407, read-out: LUCIFERASE INFECTION ASSAY - IC50): 9.9 µM
Cc1ccc(-c2cc(C(=O)NNC(=O)c3nn(C)c(=O)c4ccccc34)[nH]n2)cc1 | > 10 µM | IC50 [1]: > 10 µM
